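Results reflect a 48-hour exposure of cells in 96-well plates to compound at five concentrations. Abbreviation: GI50, concentration required for 50% inhibition of growth.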 Activity calls are given as the source filed them. Rule as the data show it: active = GI50 up to about 1.1 µM and inactive = higher.
Columns and labels:
Assay in all cases: inhibition of tumour cell growth, NCI panel, 48 h
HT-29 = test system: HT-29
UACC-257 = test system: UACC-257
U-251 = test system: U-251
TK-10 = test system: TK-10
HCT-15 = test system: HCT-15
NCI-H522 = test system: NCI-H522
RXF 393 = test system: RXF 393
UO-31 = test system: UO-31
ACHN = test system: ACHN
SF-295 = test system: SF-295
SN12C = test system: SN12C
M14 = test system: M14
HCT-116 = test system: HCT-116
NCI-H23 = test system: NCI-H23
Malme-3M = test system: Malme-3M
NCI-H226 = test system: NCI-H226
UACC-62 = test system: UACC-62
HOP-62 = test system: HOP-62

With `C#CCNC(=O)NCCCCC(NC(=O)OCc1ccccc1)C(=O)OCc1ccccc1` (stereo not drawn) the GI50 (HT-29) was 75.3 µM (inactive), the GI50 (UACC-257) was 33.2 µM (inactive) and the GI50 (U-251) was > 64.6 µM (inactive). For the same molecule, the GI50 (TK-10) was > 100 µM (inactive), the GI50 (HCT-15) was greater than 86.5 µM and the GI50 (NCI-H522) was 22.3 µM (inactive). For the same molecule, the GI50 (RXF 393) was > 100 µM (inactive), the GI50 (UO-31) was > 48.4 µM (inactive) and the GI50 (ACHN) was 27.7 µM (inactive). For the same molecule, the GI50 (SF-295) was > 100 µM (inactive), the GI50 (SN12C) was > 83.8 µM (inactive) and the GI50 (M14) was 37.6 µM (inactive). The GI50 (HCT-116) was > 68.2 µM (inactive), the GI50 (NCI-H23) was > 64.3 µM (inactive) and the GI50 (Malme-3M) was > 100 µM (inactive). The GI50 (NCI-H226) was > 100 µM (inactive) and the GI50 (UACC-62) was 63.5 µM (inactive).

With `O=C(/C=C/c1ccc(OCCCOc2ccc(/C=C/C(=O)c3ccc(Cl)cc3)cc2)cc1)c1ccc(Cl)cc1` the GI50 (HT-29) was > 100 µM (inactive), the GI50 (UACC-257) was > 100 µM (inactive) and the GI50 (U-251) was > 100 µM (inactive). The GI50 (TK-10) was > 100 µM (inactive), the GI50 (HCT-15) was greater than 100 µM and the GI50 (NCI-H522) was > 100 µM (inactive). The GI50 (RXF 393) was > 100 µM (inactive), the GI50 (ACHN) was > 100 µM (inactive) and the GI50 (SF-295) was > 100 µM (inactive). The GI50 (SN12C) was > 100 µM (inactive), the GI50 (M14) was > 100 µM (inactive) and the GI50 (HCT-116) was > 100 µM (inactive). The GI50 (NCI-H23) was > 100 µM (inactive), the GI50 (Malme-3M) was > 100 µM (inactive) and the GI50 (NCI-H226) was > 100 µM (inactive). For the same molecule, the GI50 (HOP-62) was > 100 µM (inactive) and the GI50 (UACC-62) was > 100 µM (inactive).

In the case of `CCOc1cc2c(c(OCC)c1O)CC[C@@H]1[C@@H]2CC[C@]2(C)[C@@H](O)CC[C@@H]12`, the GI50 (HT-29) is reported as 8.38 µM (inactive), the GI50 (TK-10) is reported as 25.3 µM (inactive) and the GI50 (HCT-15) is reported as 0.289 µM. The GI50 (NCI-H522) was 0.61 µM (active), the GI50 (RXF 393) was 2.21 µM (inactive) and the GI50 (UO-31) was 9.27 µM (inactive). For the same molecule, the GI50 (ACHN) was 1.11 µM (active), the GI50 (SF-295) was 0.693 µM (active) and the GI50 (M14) was 3.05 µM (inactive). The GI50 (NCI-H23) was 4.2 µM (inactive), the GI50 (Malme-3M) was 2.29 µM (inactive) and the GI50 (NCI-H226) was 15.9 µM (inactive). For the same molecule, the GI50 (HOP-62) was 1.32 µM (inactive) and the GI50 (UACC-62) was 0.482 µM (active).

In the case of `Cc1ccc(C)c(NC(=O)/C(=N\NC(N)=S)C(C#N)c2ccccc2)c1` (stereo not drawn), the GI50 (HT-29) is reported as > 100 µM (inactive), the GI50 (UACC-257) is reported as > 100 µM (inactive) and the GI50 (U-251) is reported as > 100 µM (inactive). The GI50 (TK-10) was > 100 µM (inactive), the GI50 (HCT-15) was greater than 100 µM and the GI50 (NCI-H522) was > 100 µM (inactive). For the same molecule, the GI50 (UO-31) was > 100 µM (inactive), the GI50 (ACHN) was > 100 µM (inactive) and the GI50 (SF-295) was > 100 µM (inactive). The GI50 (SN12C) was > 100 µM (inactive), the GI50 (M14) was > 100 µM (inactive) and the GI50 (HCT-116) was > 100 µM (inactive). For the same molecule, the GI50 (NCI-H23) was > 100 µM (inactive), the GI50 (Malme-3M) was > 100 µM (inactive) and the GI50 (NCI-H226) was > 100 µM (inactive). For the same molecule, the GI50 (HOP-62) was > 100 µM (inactive) and the GI50 (UACC-62) was > 100 µM (inactive).

In the case of `[N-]=[N+]=N/C1=C/CCCCC(=O)C1`, the GI50 (HT-29) is reported as > 100 µM (inactive), the GI50 (UACC-257) is reported as > 100 µM (inactive) and the GI50 (TK-10) is reported as > 100 µM (inactive). For the same molecule, the GI50 (HCT-15) was greater than 100 µM, the GI50 (NCI-H522) was 71.1 µM (inactive) and the GI50 (RXF 393) was > 100 µM (inactive). For the same molecule, the GI50 (UO-31) was > 100 µM (inactive), the GI50 (SN12C) was > 100 µM (inactive) and the GI50 (M14) was > 100 µM (inactive). The GI50 (NCI-H23) was > 100 µM (inactive), the GI50 (Malme-3M) was > 100 µM (inactive) and the GI50 (HOP-62) was > 100 µM (inactive). For the same molecule, the GI50 (UACC-62) was > 100 µM (inactive).

`COc1cccc(NC(=O)C(C)(C)C)c1C=O` was tested, and the GI50 (HT-29) was 40.7 µM (inactive), the GI50 (UACC-257) was 65.8 µM (inactive) and the GI50 (U-251) was 36.6 µM (inactive). For the same molecule, the GI50 (TK-10) was 35 µM (inactive), the GI50 (HCT-15) was 35.4 µM and the GI50 (NCI-H522) was 55.2 µM (inactive). For the same molecule, the GI50 (UO-31) was 34.3 µM (inactive), the GI50 (ACHN) was 56.2 µM (inactive) and the GI50 (SF-295) was 67.6 µM (inactive). For the same molecule, the GI50 (SN12C) was 63.1 µM (inactive), the GI50 (M14) was 70.8 µM (inactive) and the GI50 (HCT-116) was 35.6 µM (inactive). The GI50 (NCI-H23) was 48.3 µM (inactive), the GI50 (Malme-3M) was > 100 µM (inactive) and the GI50 (NCI-H226) was 33.4 µM (inactive). For the same molecule, the GI50 (HOP-62) was > 100 µM (inactive) and the GI50 (UACC-62) was 74.3 µM (inactive).

`Nc1ccn(CCNCCn2cnc3nc(N)[nH]c(=O)c32)c(=O)n1` was tested, and the GI50 (HT-29) was > 100 µM (inactive), the GI50 (UACC-257) was > 100 µM (inactive) and the GI50 (U-251) was > 100 µM (inactive). The GI50 (TK-10) was > 100 µM (inactive), the GI50 (HCT-15) was greater than 100 µM and the GI50 (NCI-H522) was > 100 µM (inactive). For the same molecule, the GI50 (RXF 393) was > 100 µM (inactive), the GI50 (UO-31) was > 100 µM (inactive) and the GI50 (ACHN) was > 100 µM (inactive). The GI50 (SF-295) was > 100 µM (inactive), the GI50 (SN12C) was > 100 µM (inactive) and the GI50 (HCT-116) was > 100 µM (inactive). The GI50 (NCI-H23) was > 100 µM (inactive), the GI50 (Malme-3M) was > 100 µM (inactive) and the GI50 (NCI-H226) was > 100 µM (inactive). The GI50 (HOP-62) was > 100 µM (inactive).

`[O-][n+]1c2cc3c(cc2[n+]([O-])c2c(O)cccc21)CN(CCN1CCOCC1)C3` was tested, and the GI50 (HT-29) was 16 µM (inactive), the GI50 (UACC-257) was 23.4 µM (inactive) and the GI50 (U-251) was 12.1 µM (inactive). For the same molecule, the GI50 (TK-10) was 27.4 µM (inactive), the GI50 (HCT-15) was 27.4 µM and the GI50 (NCI-H522) was 5.36 µM (inactive). For the same molecule, the GI50 (RXF 393) was 16.1 µM (inactive), the GI50 (UO-31) was 10.6 µM (inactive) and the GI50 (ACHN) was 5.83 µM (inactive). The GI50 (SF-295) was 13.1 µM (inactive), the GI50 (SN12C) was 29 µM (inactive) and the GI50 (M14) was 49.5 µM (inactive). For the same molecule, the GI50 (HCT-116) was 11.4 µM (inactive), the GI50 (NCI-H23) was 30.7 µM (inactive) and the GI50 (Malme-3M) was 48.9 µM (inactive). The GI50 (NCI-H226) was 41.9 µM (inactive) and the GI50 (UACC-62) was 24.8 µM (inactive).

`O=C(c1ccccc1)C(c1ccccc1)C1(O)C(=O)Nc2ccc([N+](=O)[O-])cc21` (stereo not drawn) was tested, and the GI50 (U-251) was > 100 µM (inactive), the GI50 (TK-10) was > 100 µM (inactive) and the GI50 (HCT-15) was greater than 100 µM. The GI50 (NCI-H522) was 74 µM (inactive), the GI50 (RXF 393) was > 100 µM (inactive) and the GI50 (UO-31) was 47.6 µM (inactive). For the same molecule, the GI50 (ACHN) was 33 µM (inactive), the GI50 (SN12C) was 62.4 µM (inactive) and the GI50 (M14) was > 100 µM (inactive). The GI50 (HCT-116) was > 100 µM (inactive), the GI50 (NCI-H23) was 92 µM (inactive) and the GI50 (Malme-3M) was > 100 µM (inactive). For the same molecule, the GI50 (NCI-H226) was > 100 µM (inactive), the GI50 (HOP-62) was > 100 µM (inactive) and the GI50 (UACC-62) was 58.1 µM (inactive).

Reference: ChEMBL document CHEMBL1201862, “PubChem BioAssay data set” (2004)
